Counter-ions that a name gives are not always drawn. Like-named read-outs stand apart in the source and are kept apart here.
Legend:
SLC22A24 = biological target: T1, SLC22A24 (Homo sapiens, UniProt Q8N4F4); assay: cell-based
T1 sequence (Q8N4F4 1-552): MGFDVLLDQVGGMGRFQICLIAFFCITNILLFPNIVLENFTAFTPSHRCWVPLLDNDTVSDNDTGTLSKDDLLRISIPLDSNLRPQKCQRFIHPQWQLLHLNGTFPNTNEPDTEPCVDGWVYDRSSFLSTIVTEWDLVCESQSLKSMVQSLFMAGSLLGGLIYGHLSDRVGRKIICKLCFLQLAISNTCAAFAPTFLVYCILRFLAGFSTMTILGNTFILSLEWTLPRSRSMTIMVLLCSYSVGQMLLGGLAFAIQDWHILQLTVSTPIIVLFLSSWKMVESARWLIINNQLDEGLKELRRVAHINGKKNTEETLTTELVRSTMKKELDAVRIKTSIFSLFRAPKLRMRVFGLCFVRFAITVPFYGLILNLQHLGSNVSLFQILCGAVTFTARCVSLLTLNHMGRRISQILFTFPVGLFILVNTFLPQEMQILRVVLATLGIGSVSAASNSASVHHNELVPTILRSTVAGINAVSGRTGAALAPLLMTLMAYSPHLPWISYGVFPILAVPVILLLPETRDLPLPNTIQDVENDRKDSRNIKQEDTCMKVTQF

[1] = substrate: C[C@]12CC[C@@H]3c4ccc(O)cc4CC[C@H]3[C@@H]1CC[C@@H]2O[C@@H]1O[C@H](C(=O)O)[C@@H](O)[C@H](O)[C@H]1O; assay: cells, lysate or membranes; type: cell-based, Homo sapiens
[2] = substrate: C[C@H](CCC(=O)NCC(=O)O)[C@H]1CC[C@H]2[C@@H]3[C@H](O)C[C@@H]4C[C@H](O)CC[C@]4(C)[C@H]3C[C@H](O)[C@]12C; assay: cells, lysate or membranes; type: cell-based, Homo sapiens
[3] = substrate: C[C@]12CC[C@@H]3c4ccc(OS(=O)(=O)O)cc4CC[C@H]3[C@@H]1CCC2=O; assay: cells, lysate or membranes

With `C[C@H](CCC(=O)O)[C@H]1CC[C@H]2[C@@H]3[C@H](O)C[C@@H]4C[C@H](O)CC[C@]4(C)[C@H]3CC[C@]12C` [Chenodeoxycholic acid] the IC50 (SLC22A24; read-out: IC50 [μM ± SD]) was 2.6 ± 1 µM.

`CC(=O)[C@H]1CC[C@H]2[C@@H]3CC=C4C[C@@H](OS(=O)(=O)O)CC[C@]4(C)[C@H]3CC[C@]12C` [Pregnenolone sulfate] was tested, and the IC50 (SLC22A24) was 1.4 ± 0.1 µM.

`CC(=O)[C@H]1CC[C@H]2[C@@H]3CCC4=CC(=O)CC[C@]4(C)[C@H]3CC[C@]12C` [Progesterone] gave an IC50 (SLC22A24) of 7.4 ± 3 µM.

With `O=C(O)CSc1nnc(Br)n1-c1ccc(C2CC2)c2ccccc12` [Lesinurad] the IC50 (SLC22A24; read-out: IC50 [μM ± SD]) was 13 ± 6.1 µM.

Molecule `C[C@H](CCC(=O)O)[C@H]1CC[C@H]2[C@@H]3[C@@H](O)C[C@@H]4C[C@H](O)CC[C@]4(C)[C@H]3CC[C@]12C` [Ursodeoxycholic acid] has an IC50 (SLC22A24; read-out: IC50 [μM ± SD]) of 7.6 ± 1.2 µM.

`CN(CCOc1ccc(CC2SC(=O)NC2=O)cc1)c1ccccn1` (stereo not drawn) [Rosiglitazone] gave an IC50 (SLC22A24; read-out: IC50 [μM ± SD]) of 3.3 ± 1.4 µM.

B1: SLC22A24 (Homo sapiens) (protein)
chain: T1 sequence (Q8N4F4 1-552)
In the case of B1, the Km [1] is reported as 17.5 ± 0.2 µM, the Km [2] is reported as 33.4 ± 2.5 µM and the Km [3] is reported as 8.6 ± 0.3 µM.

— publication PMC6760779, “Unraveling the functional role of the orphan solute carrier, SLC22A24 in the transport of steroid conjugates through metabolomic and genome-wide association studies” (PLoS Genetics, 2019)
